{"source": "paper PMC10304486", "about": "“The FilZ Protein Contains a Single PilZ Domain and Facilitates the Swarming Motility of Pseudoalteromonas sp. SM9913” (Microorganisms, 2023)", "test_in_all_cases": "isothermal titration calorimetry", "assay_type_in_all_cases": "binding", "key": {"FilZ [1]": {"target": "T1, FilZ (Pseudoalteromonas tetraodonis, UniProt A0AA37S473, R9A)", "T1 construct": "gene GCM10007914_23770; single PilZ domain protein", "T1 sequence (A0AA37S473 entry or part of it R9A)": "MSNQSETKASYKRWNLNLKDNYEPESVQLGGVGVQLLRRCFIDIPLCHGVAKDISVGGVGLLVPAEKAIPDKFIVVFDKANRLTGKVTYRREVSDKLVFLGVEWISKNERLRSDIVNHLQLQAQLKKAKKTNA"}, "FilZ [2]": {"target": "T2, FilZ (Pseudoalteromonas tetraodonis, UniProt A0AA37S473, D53A)", "T2 construct": "gene GCM10007914_23770; single PilZ domain protein", "T2 sequence (A0AA37S473 entry or part of it D53A)": "as the sequence (A0AA37S473 entry or part of it R9A) above, with A9R, D53A counted along it"}, "FilZ [3]": {"target": "T3, FilZ (Pseudoalteromonas tetraodonis, UniProt A0AA37S473)", "T3 construct": "gene GCM10007914_23770; single PilZ domain protein", "T3 sequence (A0AA37S473 1-133)": "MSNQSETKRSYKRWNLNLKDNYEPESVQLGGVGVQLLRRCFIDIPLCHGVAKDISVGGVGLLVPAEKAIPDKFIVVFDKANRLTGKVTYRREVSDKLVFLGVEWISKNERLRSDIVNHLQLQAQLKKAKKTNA"}, "FilZ [4]": {"target": "T4, FilZ (Pseudoalteromonas tetraodonis, UniProt A0AA37S473, G101A)", "T4 construct": "gene GCM10007914_23770; single PilZ domain protein", "T4 sequence (A0AA37S473 entry or part of it G101A)": "as the sequence (A0AA37S473 entry or part of it R9A) above, with A9R, G101A counted along it"}, "FilZ [5]": {"target": "T5, FilZ (Pseudoalteromonas tetraodonis, UniProt A0AA37S473, G58A)", "T5 construct": "gene GCM10007914_23770; single PilZ domain protein", "T5 sequence (A0AA37S473 entry or part of it G58A)": "as the sequence (A0AA37S473 entry or part of it R9A) above, with A9R, G58A counted along it"}, "FilZ [6]": {"target": "T6, FilZ (Pseudoalteromonas tetraodonis, UniProt A0AA37S473, R13A)", "T6 construct": "gene GCM10007914_23770; single PilZ domain protein", "T6 sequence (A0AA37S473 entry or part of it R13A)": "as the sequence (A0AA37S473 entry or part of it R9A) above, with A9R, R13A counted along it"}}, "note": "pKd: −log10 of the molar value.", "data": [{"smiles": "Nc1nc2c(ncn2[C@@H]2O[C@@H]3COP(=O)(O)O[C@H]4[C@@H](O)[C@H](n5cnc6c(=O)[nH]c(N)nc65)O[C@@H]4COP(=O)(O)O[C@H]3[C@H]2O)c(=O)[nH]1", "note": "[c-di-GMP]", "values": [{"measurement": "completely lost the ability to bind", "setting": "FilZ [1]", "result": "Mutants R9A, R13A, D53A, G58A, and G101A all completely lost the ability to bind c-di-GMP"}, {"measurement": "completely lost the ability to bind", "setting": "FilZ [2]", "result": "Mutants R9A, R13A, D53A, G58A, and G101A all completely lost the ability to bind c-di-GMP"}, {"measurement": "pKd", "setting": "FilZ [3]", "result": 6.64}, {"measurement": "completely lost the ability to bind", "setting": "FilZ [4]", "result": "Mutants R9A, R13A, D53A, G58A, and G101A all completely lost the ability to bind c-di-GMP"}, {"measurement": "completely lost the ability to bind", "setting": "FilZ [5]", "result": "Mutants R9A, R13A, D53A, G58A, and G101A all completely lost the ability to bind c-di-GMP"}, {"measurement": "completely lost the ability to bind", "setting": "FilZ [6]", "result": "Mutants R9A, R13A, D53A, G58A, and G101A all completely lost the ability to bind c-di-GMP"}]}]}
